The values that follow come from patent publication US20250295792A1, “POLYETHYLENE GLYCOL-MODIFIED FORM OF KININ OR DERIVATIVE THEREOF AND PHARMACEUTICAL USE THEREOF” (ZonHon Biopharma Institute, Inc., priority 2022, published 2025).

The nature of data set [1]: Stability in SD rat serum system in vitro (UPLC-RP). The procedure:
Assess the stability of lysyl bradykinin/bradykinin by evaluating its stability in serum system in vitro. 2 mg/ml peptide and SD rat serum were mixed at volume ratio of 85:15, incubated at 37° C. for 30 min, 60 min, 90 min, 120 min, 180 min, etc, terminate by adding 3% trichloroacetic acid (50% volume of the above mixture system with peptide and serum) and effectively remove matrix interference in the serum. Further monitor the degradation of peptide samples in the serum system to evaluate its stability basing on UPLC-RP-UV214 nm method. RP analysis method: Protein BEH C4 2.1×150 mm as chromatographic column, 1.7 μm, column temperature 30° C., mobile phase A: 0.1% TFA/H2O, mobile phase B: 0.1% TFA/ACN, gradient: 0-5 min, 5% B; 5-10 min, 5-40% B; 10-30 min, 40-60% B; 30-32 min, 60-100% B; 32 to 35 min, 5% B.
The stability of PEG conjugates of lysyl bradykinin and its variants was indirectly evaluated by evaluating their stability in serum system in vitro, as determined in Example 2.

In data set [2] the test system is middle cerebral artery occlusion (MCAO) cerebral ischemia-reperfusion model. Nature of the data set: MCAO cerebral ischemia-reperfusion model: neurological deficit score and cerebral infarct size. It is filed as in vivo, SD rats. As to conditions: for Neurological deficit symptoms compared with the model group (in words): Example 7, FIG. 7a; for Neurological deficit symptoms compared with the model group (in words) / Cerebral infarct size compared with the model group (in words): intravenous, Edaravone 6 mg/kg, conjugate 3 mg/kg; for Cerebral infarct size compared with the model group (in words): Example 7, FIG. 7b. The procedure: SD rats, male, SPF grade, weighing 270-300 g. The middle cerebral artery occlusion (MCAO) of cerebral ischemia-reperfusion model was prepared by using the intraluminal suture method in rats. Animals were anesthetized with gas (isoflurane), and then fixed them in a supine position. The skin was disinfected, and the right common carotid artery, external carotid artery, and internal carotid artery were separated from the midline incision in the neck. The vagus nerve was gently peeled off, and the external carotid artery was ligated and cut. The common carotid artery was clamped near the proximal end, and an incision was made from the distal end of the ligature line of the external carotid artery. The suture (model 2438-A5, purchased from Beijing Xinong Technology Co., LTD.) was inserted and passed through the bifurcation of the common carotid artery into the internal carotid artery. The suture was then slowly inserted until slight resistance was encountered (about 20 mm from the bifurcation), blocking the blood supply to the middle cerebral artery. The neck skin was sutured, disinfected, and the rat was returned to the cage. After 90 minutes of ischemia, the rat was anesthetized again, fixed on the rat board, and the neck skin was cut open to find the suture, which was gently removed. Reperfusion was performed, and the neck skin was sutured, disinfected, and the rat was returned to the cage for feeding.
The rats were divided into sham operation group, model group (administered PBS intravenously), Edaravone group (administered intravenously, 6 mg/kg), and PEG conjugate of lysyl bradykinin group (administered intravenously, 3 mg/kg). The rats were injected once after 2 hours of reperfusion.
The modified Bederson method was used to evaluate neurological defect symptoms.
Animals were anesthetized with 10% chloral hydrate, the brain tissue was removed, the olfactory bulbs, cerebellum and lower brainstem were removed, and the bloodstain on brain surface was washed with […]. After removing surface residual water, the brain tissue was placed at −80° C. for 7 minutes, took out and cut into coronal sections perpendicular to the visual cross plane, and sliced at intervals of 2 mm to the posterior direction. The brain slices were placed in fresh TTC (20 g/L) dye solution prepared with SPSS at 37° C. for 90 minutes. Normal brain tissue was stained deep red, while ischemic brain tissue appeared pale. After washing with SPSS, the brain slices were quickly arranged in sequence from front to back, residual water on the surface was absorbed, and photographed. The image analysis software (Image Tool) was used to delineate the ischemic area (white area) and the right side area on the photos for statistical analysis. The percentage of cerebral infarction area was calculated using the following formula:
Cerebral infarction area (%)=100×total ischemic area/total right hemisphere area.
Except for Table 7-6, the dosage of the other groups was 3 mg/kg (all the dosage was calculated based on peptides). The administration methods included intravenous injection and subcutaneous injection, and the injection was given once after 2 hours of reperfusion.
Based on the same model, the effect of PEG conjugate of lysyl bradykinin variant was investigated by both intravenous and subcutaneous injection at dose of […] (the dose was calculated based on polypeptide). […]

A further data set deals with T1, B2 receptor (Homo sapiens, UniProt P30411).
T1 construct: expressed in transfected cells; host or cells: CHO-K1
T1 sequence (P30411 1-391): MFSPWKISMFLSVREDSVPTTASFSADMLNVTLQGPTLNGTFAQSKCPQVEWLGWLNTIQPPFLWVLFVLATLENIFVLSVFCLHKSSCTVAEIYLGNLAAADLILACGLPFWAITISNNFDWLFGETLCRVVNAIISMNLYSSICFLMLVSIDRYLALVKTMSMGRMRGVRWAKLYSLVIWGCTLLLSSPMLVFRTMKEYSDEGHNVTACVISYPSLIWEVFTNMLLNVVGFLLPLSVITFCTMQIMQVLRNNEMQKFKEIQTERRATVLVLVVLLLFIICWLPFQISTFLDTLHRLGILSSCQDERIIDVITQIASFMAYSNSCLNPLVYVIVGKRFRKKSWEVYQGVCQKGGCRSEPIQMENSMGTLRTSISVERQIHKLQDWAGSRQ
Nature of the data set: B2 receptor reporter gene assay in B2-NFAT-CHO-K1 cells. It is filed as cell-based. The conditions noted are these: Table 3-1; relative activity calculated from EC50, wild type Lys-BK = 100%. An excerpt: The pharmacological action of lysyl bradykinin/bradykinin in vivo is achieved by binding to B2 receptors and activating downstream signaling pathways
The cell line B2-NFAT-CHO-K1 stably transfected with B2 receptor reporter gene was constructed based on CHO-K1 host cells and the cell library was constructed. The B2-NFAT-CHO-K1 cell library was used to evaluate the binding activity of lysyl bradykinin/bradykinin or its variants or PEG modified products to B2 receptor in vitro.
Detection methods: The cells were cultured in 96-well plates at 5×10^4 cells/well, 37° C., 5% CO2 for 16-20 hours, and then gradient diluted standard and test solutions were added. After 5 hours, added Bio-Lite luciferase detection reagent and the chemiluminescence intensity was measured. GraphPad was used to make four-parameter equation curve and calculate the relative activity according to the EC50 value.
(§1) In vitro B2-receptor affinity activity and activity of activating downstream signaling pathway of PEG conjugates of lysyl bradykinin and its variants were tested, as in Example 3.

In data set [3] the test system is p-CREB and p-ERK1/2, B2 receptor downstream signals. Nature of the data set: Western blot of p-ERK1/2 and p-CREB in CHO-K1 cells overexpressing B2 receptor. It is filed as cell-based. The conditions noted are these: FIG. 5. The procedure:
as §1

For data set [4] the following is noted: subcutaneous 30 mg in adults; cited from earlier work.
Where [5] appears, read: Table 2-1, 2 mg/ml peptide : SD rat serum 85:15 v/v, 37° C., sampled 30-180 min.

Like-named read-outs stand apart in the source and are kept apart here. Where a SMILES comes first, the peptide text is derived from it. Where no end group is shown, it is not given here. [ ]: non-standard residue; d: D form. M‑SPA‑5K = straight-chain monomethoxy PEG succinimidyl propionate, about 5 kDa; 2Thi = N[C@@H](Cc1cccs1)C(=O)O A value given as a limit tells only on which side of the number the result lay.

Turning to “Lys-BK-SPA5K: wild-type Lys-BK N-terminally single-modified with straight-chain M-SPA-5K PEG (about 5 kDa)”, in data set [1], the “Residual time in serum system” value is listed as above 6 h. Also, the “Neurological deficit symptoms compared with the model group (in words)” value in data set [2] is given as “significant improvement in neurological deficit symptoms”. In addition, in data set [2], the “Cerebral infarct size compared with the model group (in words)” value is “significant improvement in cerebral infarction area”. Further, the “Neurological deficit symptom score” value in data set [2] (Table 6-1, intravenous 3 mg/kg once 2 h after reperfusion, Mean ± SE, model group 3.13 ± 0.09) is listed as 2.38 ± 0.15; in data set [2] (Table 7-1, intravenous injection 3 mg/kg, model group 2.69 ± 0.12), 2.13 ± 0.18; in data set [2] (Table 9-1, oral administration once 6 mg/kg, model group 2.12 ± 0.17) it was 1.60 ± 0.17. The “Cerebral infarct size (%)” value was found to be 34.84 ± 2.90 % in data set [2] (Table 6-2, intravenous 3 mg/kg, Mean ± SE, model group 48.50 ± 1.66); 24.73 ± 3.15 % in data set [2] (Table 7-1, intravenous injection 3 mg/kg, model group 38.73 ± 1.99); 22.82 ± 2.56% in data set [2] (Table 9-1, oral administration once 6 mg/kg, model group 29.23 ± 4.32).
In the case of “Lys-BKm09: variant peptide {THI}SPFR, SEQ ID NO 10 ([2Thi]SPFR)”, the Relative affinity activity with B2 receptor is reported as 0%.
Still for that read-out and setting: with “Lys-BKm10: variant peptide SPFR, SEQ ID NO 11” the figure was 0%.
As for “Lys-BKm13-SPA5K: Lys-BKm13 N-terminally single-modified with M-SPA-5K PEG ({M‑SPA‑5K}-CRRPPG[2Thi]SPFR)”, the “Activity of activating phosphorylation of ERK1/2 and CREB, PEG conjugates (in words)” value in data set [3] was “highest activity among different peptide variants”. Besides, the “Neurological deficit symptoms and cerebral infarction area compared with the model group (in words)” value in data set [2] (Example 9, intravenous and subcutaneous injection 4.5 mg/kg) was “significant improvement in neurological deficit symptoms and cerebral infarction area”. Also, the “Neurological deficit symptom score” value in data set [2] (Table 7-4, intravenous injection 3 mg/kg, model group 3.00 ± 0.10) worked out at 2.13 ± 0.15; in data set [2] (Table 7-6, subcutaneous injection 4.5 mg/kg, model group 3.00 ± 0.09), 2.69 ± 0.12; in data set [2] (Table 8-1, intravenous injection 4.5 mg/kg, model group 2.80 ± 0.11) it was 2.19 ± 0.16; in data set [2] (Table 8-1, subcutaneous injection 4.5 mg/kg, model group 2.80 ± 0.11), 2.25 ± 0.17. The “Cerebral infarct size (%)” value in data set [2] (Table 7-4, intravenous injection 3 mg/kg, model group 38.79 ± 2.01) was 23.54 ± 1.99 %; in data set [2] (Table 7-6, subcutaneous injection 4.5 mg/kg, model group 41.40 ± 1.83), 36.07 ± 2.47%; in data set [2] (Table 8-1, intravenous injection 4.5 mg/kg, model group 38.45 ± 2.16) it was 25.16 ± 2.36 %; in data set [2] (Table 8-1, subcutaneous injection 4.5 mg/kg, model group 38.45 ± 2.16) it was 26.06 ± 2.69 %.
Turning to “Lys-BKm08: variant peptide PG{THI}SPFR, SEQ ID NO 9 (PG[2Thi]SPFR)”, the Relative affinity activity with B2 receptor is below 10%.
`N=C(N)NCCC[C@H](NC(=O)[C@H](Cc1ccccc1)NC(=O)[C@@H]1CCCN1C(=O)[C@H](CO)NC(=O)[C@H](Cc1cccs1)NC(=O)CNC(=O)[C@@H]1CCCN1C(=O)[C@@H]1CCCN1C(=O)[C@H](CCCNC(=N)N)NC(=O)[C@H](CCCCN)NC(=O)[C@H](CCCNC(=N)N)NC(=O)[C@H](Cc1ccccc1)NC(=O)[C@@H]1CCCN1C(=O)[C@H](CO)NC(=O)[C@H](Cc1cccs1)NC(=O)CNC(=O)[C@@H]1CCCN1C(=O)[C@@H]1CCCN1C(=O)[C@H](CCCNC(=N)N)NC(=O)[C@@H](N)CCCCN)C(=O)O` [Lys-BKm14] (H-KRPPG[2Thi]SPFRKRPPG[2Thi]SPFR-OH; N-terminus and C-terminus assumed): the “Residual time in serum system” value in data set [1] (setting [5]) fell in the range of 1.5 to 2 h.
`NC(N)=NCCC[C@@H](N)C(=O)N[C@@H](CCCN=C(N)N)C(=O)N1CCC[C@H]1C(=O)N1C[C@H](O)C[C@H]1C(=O)NCC(=O)N[C@@H](Cc1cccs1)C(=O)N[C@@H](CO)C(=O)N1Cc2ccccc2C[C@@H]1C(=O)N1[C@H](C(=O)N[C@@H](CCCN=C(N)N)C(=O)O)C[C@@H]2CCCC[C@@H]21` [icatibant]: in data set [4], the peak blood concentration was 405 ng/mL and the “time to peak blood concentration” value is 1.79 h.
On to `CC1=NN(c2ccccc2)C(=O)C1` [Edaravone, reference compound], for which, in data set [2], the “Neurological deficit symptoms compared with the model group (in words)” value is recorded as “significant improvement in neurological deficit symptoms” and the “Cerebral infarct size compared with the model group (in words)” value is reported as “significant improvement in cerebral infarct size”. Also, in data set [2] (Table 6-1, intravenous 6 mg/kg once 2 h after reperfusion, Mean ± SE, model group 3.13 ± 0.09), the “Neurological deficit symptom score” value came out at 2.40 ± 0.13. Also, the “Cerebral infarct size (%)” value in data set [2] (Table 6-2, intravenous 6 mg/kg, Mean ± SE, model group 48.50 ± 1.66) was 34.12 ± 2.35 %.
Turning to `N=C(N)NCCC[C@H](NC(=O)[C@H](Cc1ccccc1)NC(=O)[C@@H]1CCCN1C(=O)[C@H](CO)NC(=O)[C@H](Cc1cccs1)NC(=O)CNC(=O)[C@@H]1CCCN1C(=O)[C@@H]1CCCN1C(=O)[C@H](CCCNC(=N)N)NC(=O)[C@H](CCCNC(=N)N)NC(=O)[C@@H](N)CCCCN)C(=O)O` [Lys-BKm11] (H-KRRPPG[2Thi]SPFR-OH; N-terminus and C-terminus assumed), in data set [1] (setting [5]), the “Residual time in serum system” value is reported as 60~90 min.
Same read-out and setting: the same measure for `N=C(N)NCCC[C@H](NC(=O)[C@H](Cc1ccccc1)NC(=O)[C@@H]1CCCN1C(=O)[C@H](CO)NC(=O)[C@H](Cc1cccs1)NC(=O)CNC(=O)[C@@H]1CCCN1C(=O)[C@@H]1CCCN1C(=O)[C@H](CCCNC(=N)N)NC(=O)[C@H](CCCNC(=N)N)NC(=O)[C@H](CCCNC(=N)N)NC(=O)[C@@H](N)CS)C(=O)O` [Lys-BKm16] (H-CRRRPPG[2Thi]SPFR-OH; N-terminus and C-terminus assumed): 60~90 min.
